# Publication PMC2904697, “A Screen for Kinetochore-Microtubule Interaction Inhibitors Identifies Novel Antitubulin Compounds” (PLoS ONE, 2010)
# Assays:
# HeLa cells = test: Ability of the compound to enter cells; format: cell-based, human
# Excerpt: During the last twenty-five years antispindle drugs have been used with great success in the fight against cancer. However, as cancer cells are developing resistance against these drugs, there is an urgent need for compounds targeting alternative mitotic targets. As kinetochores orchestrate chromosome segregation and comprise >100 proteins, they are appealing mitosis-specific drug targets. The high antitumor activity of compounds inhibiting kinetochore regulators (Aurora kinase, PLK1) and the kinetochore-associated kinesin CENP-E supports the concept of targeting kinetochore function to eradicate proliferating cells, [9], [19]. The complexity of kinetochores, the lack of insight into intrakinetochore protein-protein contacts and protein-activity relationships, as well as the difficulty to produce kinetochore subunits in large quantities for use in in vitro screens has long hampered the conversion of structural kinetochore components into anticancer drug targets. […] As the Ndc80 complex can be produced recombinantly in high quantity and because the recombinant complex is fully active as shown following injection in cells we focused on this complex to screen for inhibitors of kinetochore-MT binding. […]
# [1] = system: recombinant CLIP-170^488 binding to taxol-stabilized MTs; test: CLIP-170^488 binding to taxol-stabilized MTs (specificity control); settings: compound B at 50 µmol/l
# Excerpt: Figure 2 Compound B prevents the recombinant Ndc80 kinetochore complex from binding to taxol-stabilized microtubules. Effect of compound B (50 µmol/l) on binding of the Ndc80^488 complex to rhodamine-labeled, taxol-stabilized MTs as assayed using inverted wide-field fluorescence microscopy. The scale bar represents 4 µm (A). Structure of compound B; 6-furan-2-yl-3-methyl-4-oxo-4,5,6,7-tetrahydro-1H-indole-2-carboxylic acid (tetrahydro-furan-2-yl)methyl ester (B). Measurement of the IC50 value of compound B using total internal reflection fluorescence microscopy. The scale bar represents 4 µm (C). Compound B (50 µmol/l) prevented MT-associating protein CLIP-170^488, used as a specificity control, from binding to taxol-stabilized MTs. The scale bar represents 4 µm (D). […] The scale bar represents 4 µm (E).
# A compound inhibiting the Ndc80^488 complex-MT interaction could act either against the complex or against the MTs. To probe the specificity of compound B toward the Ndc80^488 complex, we examined its ability to inhibit MT binding of recombinant CLIP-170^488, a MT plus-end tracking protein.
compound,measurement,setting,value
"N#CC(=Cc1ccc(-c2ccc(C(=O)O)cc2)o1)c1nc2ccccc2[nH]1 [compound C, 4-5-2-1H-benzimidazol-2-yl-2-cyano-vinyl-furan-2-yl-benzoic acid]",Cell entry,HeLa cells,inability of the compound to enter cells
same,Effect on binding of CLIP-170^488 to taxol-stabilized MTs,[1],did not inhibit
